Results taken from patent publication US12077503B2, “Substituted cyclic amides and their use as herbicides” (FMC CORPORATION, priority 2015, dated 2024).

Columns and labels:
Assay in all cases: Test D preemergence
Format in all cases: in vivo
Conditions in all cases: scale 0 to 100
[1] = tested on: barley, winter (winter barley Hordeum vulgare)
In short: (§1)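 Visual rating, 0 = no effect, 100 = complete control, versus controls ~21 d after treatment. Preemergence application to seeds planted in silt loam; compound in non-phytotoxic solvent mix with surfactant; controlled growth environment.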

[2] = tested on: foxtail, green (green foxtail, Setaria viridis)
In short: as §1

[3] = tested on: deadnettle (henbit deadnettle, Lamium amplexicaule)
In short: as §1

[4] = tested on: Russian thistle (Salsola kali)
In short: as §1

[5] = tested on: ryegrass, Italian (Italian ryegrass, Lolium multiflorum)
In short: as §1

[6] = tested on: oat, wild (wild oat, Avena fatua)
In short: as §1

[7] = tested on: bromegrass, downy (downy bromegrass, Bromus tectorum)
In short: as §1

[8] = tested on: mustard, wild (wild mustard, Sinapis arvensis)
In short: as §1

[9] = tested on: barley, spring (spring barley, Hordeum vulgare)
In short: as §1

[10] = tested on: radish, wild (wild radish, Raphanus raphanistrum)
In short: as §1

[11] = tested on: canarygrass (littleseed canarygrass, Phalaris minor)
In short: as §1

[12] = tested on: chickweed (common chickweed, Stellaria media)
In short: as §1

[13] = tested on: bluegrass (annual bluegrass, Poa annua)
In short: as §1

[14] = tested on: lambsquarters (Chenopodium album)
In short: as §1

[15] = tested on: Galium (catchweed bedstraw, Galium aparine)
In short: as §1

[16] = tested on: field violet (Viola arvensis)
In short: as §1

[17] = tested on: windgrass (Apera spica-venti)
In short: as §1

[18] = tested on: chamomile (scentless chamomile, Matricaria inodora)
In short: as §1

[19] = tested on: wheat, winter (winter wheat, Triticum aestivum)
In short: as §1

Kochia (Kochia scoparia) = tested on: Kochia (Kochia scoparia)
In short: as §1

[20] = tested on: pigweed (Amaranthus retroflexus)
In short: as §1

[21] = tested on: oilseed rape (Brassica napus)
In short: as §1

## CN1CC(c2cccc(C(F)(F)F)c2)C(C(=O)Nc2ccccc2S(C)(=O)=O)C1=O (centres unmarked) [Compound 637]
[1]; 31 g ai/ha
  Plant response rating: Barley, Winter: 0
[1]; 62 g ai/ha
  Plant response rating: Barley, Winter: 0
[1]; 125 g ai/ha
  Plant response rating: Barley, Winter: 50
[1]; 250 g ai/ha
  Plant response rating: Barley, Winter: 60
[2]; 31 g ai/ha
  Plant response rating: Foxtail, Green: 75
[2]; 62 g ai/ha
  Plant response rating: Foxtail, Green: 80
[2]; 125 g ai/ha
  Plant response rating: Foxtail, Green: 95
[2]; 250 g ai/ha
  Plant response rating: Foxtail, Green: 100
[3]; 31 g ai/ha
  Plant response rating: Deadnettle: 0
[3]; 62 g ai/ha
  Plant response rating: Deadnettle: 0
[3]; 125 g ai/ha
  Plant response rating: Deadnettle: 25
[3]; 250 g ai/ha
  Plant response rating: Deadnettle: 65
[4]; 31 g ai/ha
  Plant response rating: Russian Thistle: 0
[4]; 62 g ai/ha
  Plant response rating: Russian Thistle: 0
[4]; 125 g ai/ha
  Plant response rating: Russian Thistle: 10
[4]; 250 g ai/ha
  Plant response rating: Russian Thistle: 50
[5]; 31 g ai/ha
  Plant response rating: Ryegrass, Italian: 0
[5]; 62 g ai/ha
  Plant response rating: Ryegrass, Italian: 0
[5]; 125 g ai/ha
  Plant response rating: Ryegrass, Italian: 20
[5]; 250 g ai/ha
  Plant response rating: Ryegrass, Italian: 20
[6]; 31 g ai/ha
  Plant response rating: Oat, Wild: 20
[6]; 62 g ai/ha
  Plant response rating: Oat, Wild: 30
[6]; 125 g ai/ha
  Plant response rating: Oat, Wild: 75
[6]; 250 g ai/ha
  Plant response rating: Oat, Wild: 85
[7]; 31 g ai/ha
  Plant response rating: Bromegrass, Downy: 0
[7]; 62 g ai/ha
  Plant response rating: Bromegrass, Downy: 10
[7]; 125 g ai/ha
  Plant response rating: Bromegrass, Downy: 25
[7]; 250 g ai/ha
  Plant response rating: Bromegrass, Downy: 40
[8]; 31 g ai/ha
  Plant response rating: Mustard, Wild: 5
[8]; 62 g ai/ha
  Plant response rating: Mustard, Wild: 5
[8]; 125 g ai/ha
  Plant response rating: Mustard, Wild: 15
[8]; 250 g ai/ha
  Plant response rating: Mustard, Wild: 15
[9]; 31 g ai/ha
  Plant response rating: Barley, Spring: 0
[9]; 62 g ai/ha
  Plant response rating: Barley, Spring: 20
[9]; 125 g ai/ha
  Plant response rating: Barley, Spring: 40
[9]; 250 g ai/ha
  Plant response rating: Barley, Spring: 70
[10]; 62 g ai/ha
  Plant response rating: Radish, Wild: 20
[10]; 125 g ai/ha
  Plant response rating: Radish, Wild: 20
[10]; 250 g ai/ha
  Plant response rating: Radish, Wild: 90
[11]; 31 g ai/ha
  Plant response rating: Canarygrass: 0
[11]; 62 g ai/ha
  Plant response rating: Canarygrass: 0
[11]; 125 g ai/ha
  Plant response rating: Canarygrass: 50
[11]; 250 g ai/ha
  Plant response rating: Canarygrass: 70
[12]; 31 g ai/ha
  Plant response rating: Chickweed: 0
[12]; 62 g ai/ha
  Plant response rating: Chickweed: 5
[12]; 125 g ai/ha
  Plant response rating: Chickweed: 65
[12]; 250 g ai/ha
  Plant response rating: Chickweed: 75
[13]; 31 g ai/ha
  Plant response rating: Bluegrass: 5
[13]; 62 g ai/ha
  Plant response rating: Bluegrass: 25
[13]; 125 g ai/ha
  Plant response rating: Bluegrass: 75
[13]; 250 g ai/ha
  Plant response rating: Bluegrass: 100
[14]; 31 g ai/ha
  Plant response rating: Lambsquarters: 50
[14]; 62 g ai/ha
  Plant response rating: Lambsquarters: 60
[14]; 125 g ai/ha
  Plant response rating: Lambsquarters: 40
[14]; 250 g ai/ha
  Plant response rating: Lambsquarters: 75
[15]; 31 g ai/ha
  Plant response rating: Galium: 0
[15]; 62 g ai/ha
  Plant response rating: Galium: 20
[15]; 125 g ai/ha
  Plant response rating: Galium: 30
[15]; 250 g ai/ha
  Plant response rating: Galium: 10
[16]; 31 g ai/ha
  Plant response rating: Field Violet: 0
[16]; 62 g ai/ha
  Plant response rating: Field Violet: 0
[16]; 125 g ai/ha
  Plant response rating: Field Violet: 0
[16]; 250 g ai/ha
  Plant response rating: Field Violet: 0
[17]; 31 g ai/ha
  Plant response rating: Windgrass: 10
[17]; 62 g ai/ha
  Plant response rating: Windgrass: 25
[17]; 125 g ai/ha
  Plant response rating: Windgrass: 85
[17]; 250 g ai/ha
  Plant response rating: Windgrass: 95
[18]; 31 g ai/ha
  Plant response rating: Chamomile: 0
[18]; 125 g ai/ha
  Plant response rating: Chamomile: 90
[18]; 250 g ai/ha
  Plant response rating: Chamomile: 90
[19]; 31 g ai/ha
  Plant response rating: Wheat, Winter: 5
[19]; 62 g ai/ha
  Plant response rating: Wheat, Winter: 40
[19]; 125 g ai/ha
  Plant response rating: Wheat, Winter: 60
[19]; 250 g ai/ha
  Plant response rating: Wheat, Winter: 75
Kochia (Kochia scoparia); 31 g ai/ha
  Plant response rating: Kochia: 5
Kochia (Kochia scoparia); 62 g ai/ha
  Plant response rating: Kochia: 0
Kochia (Kochia scoparia); 125 g ai/ha
  Plant response rating: Kochia: 35
Kochia (Kochia scoparia); 250 g ai/ha
  Plant response rating: Kochia: 85
[20]; 31 g ai/ha
  Plant response rating: Pigweed: 20
[20]; 62 g ai/ha
  Plant response rating: Pigweed: 90
[20]; 125 g ai/ha
  Plant response rating: Pigweed: 100
[20]; 250 g ai/ha
  Plant response rating: Pigweed: 98
[21]; 31 g ai/ha
  Plant response rating: Oilseed Rape: 0
[21]; 62 g ai/ha
  Plant response rating: Oilseed Rape: 40
[21]; 125 g ai/ha
  Plant response rating: Oilseed Rape: 40
[21]; 250 g ai/ha
  Plant response rating: Oilseed Rape: 65
